From patent publication US20240025880A1 (CHIESI FARMACEUTICI S.P.A., priority 2020, published 2024)
Counter-ions that a name gives are not always drawn. Like-named read-outs stand apart in the source and are kept apart here.

Assays:
h P2X2/3 = target: T1, h P2X2/3 (Homo sapiens, UniProt P56373+Q9UBL9); assay: In vitro electrophysiology assay for P2X2/3 (same protocol, 10 μM ATP agonist); format: cell-based; conditions: Table 3, mean current seven seconds after agonist, read-out: h P2X2/3 (pIC50 range of activity) (converted)
T1 construct: host or cells: cells not described; same protocol as the P2X3 assay
T1 sequence (P56373 1-397): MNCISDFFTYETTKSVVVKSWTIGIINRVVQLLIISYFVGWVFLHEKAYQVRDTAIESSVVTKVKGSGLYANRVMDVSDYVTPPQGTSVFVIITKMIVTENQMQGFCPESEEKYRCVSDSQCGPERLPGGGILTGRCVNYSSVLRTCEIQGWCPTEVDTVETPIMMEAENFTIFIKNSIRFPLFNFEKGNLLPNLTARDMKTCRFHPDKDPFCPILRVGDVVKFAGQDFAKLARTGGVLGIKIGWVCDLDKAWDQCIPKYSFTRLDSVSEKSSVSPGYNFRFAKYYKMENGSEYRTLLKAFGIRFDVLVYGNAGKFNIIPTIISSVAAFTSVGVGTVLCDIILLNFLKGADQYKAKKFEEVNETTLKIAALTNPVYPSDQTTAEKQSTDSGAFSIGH
T1 sequence (Q9UBL9 1-471): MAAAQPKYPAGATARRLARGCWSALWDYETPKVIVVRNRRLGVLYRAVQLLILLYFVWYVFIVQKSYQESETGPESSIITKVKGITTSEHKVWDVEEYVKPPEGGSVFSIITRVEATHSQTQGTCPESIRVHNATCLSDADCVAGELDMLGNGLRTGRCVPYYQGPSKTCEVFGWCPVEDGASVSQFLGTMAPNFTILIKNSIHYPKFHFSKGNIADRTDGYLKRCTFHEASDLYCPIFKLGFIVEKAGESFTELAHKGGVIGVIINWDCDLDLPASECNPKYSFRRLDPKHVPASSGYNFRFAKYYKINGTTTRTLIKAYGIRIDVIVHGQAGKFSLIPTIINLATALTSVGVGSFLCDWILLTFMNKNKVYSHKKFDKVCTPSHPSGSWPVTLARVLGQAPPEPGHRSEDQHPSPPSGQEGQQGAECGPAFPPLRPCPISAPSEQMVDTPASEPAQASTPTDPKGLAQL
Experimental: Cells expressing P2X3 receptors were grown according to standard practice and maintained at 37° C. in a 5% humidified CO2 atmosphere. The cells were seeded into T175 flask 2 days prior to the day of the assay and dissociated from the flasks using TrypLE when grown to confluence of 80-90%. The dissociated cells were resuspended in serum free media at a cell density of 3×10^6 cells/ml and loaded onto the Sophion Qube automated patch-clamp system. The extracellular assay buffer contained 145 mM NaCl, 4 mM KCl, 2 mM CaCl2, 1 mM MgCl2, 10 mM HEPES, and 10 mM glucose at pH 7.4. The intracellular assay solution contained 140 mM CsF, 10 mM NaCl, 10 mM EGTA, 10 mM HEPES at pH 7.2. Agonist stock solutions were prepared in H2O and diluted in bath solution prior to use. All antagonists were prepared as 10 mM stock solutions in DMSO and diluted in bath solution prior to use. All experiments were performed under the whole-cell patch clamp configuration at room temperature with 384 individual cells being voltage clamped at −60 mV simultaneously on the Sophion Qube instrument. Two baseline responses were established with the application of α,β-MeATP (800 nM), with the subsequent agonist applications being washed out using extracellular assay buffer containing 0.5 U/ml apyrase. Following the second agonist application, antagonist was incubated in the absence of α,β-MeATP for 10 minutes. After antagonist preincubation, 800 nM α,β-MeATP and antagonist were co-administered to determine the inhibitory effect of the antagonist. One concentration of an antagonist was assessed against a single cell, with different concentrations of the antagonist applied to other cells on the 384 recording substrate. The control P2X3 current amplitude was taken from the peak current amplitude from the second agonist response prior to preincubation with antagonist. The peak P2X3 current amplitude in the presence of antagonist was used to calculate the inhibitory effect at each concentration of the antagonist according to the following equation: […]
In vitro Electrophysiology Assay for P2X2/3
Representative compound of the present invention have been also tested for P2X2/3 receptor.
The same assay protocol was used for the P2X2/3 assay as the P2X3 assay with two modifications: 1) 10 μM ATP was used as the agonist; and 2) the mean current amplitude was measured seven seconds after the application of agonist.

h P2X3 = target: T2, h P2X3 (Homo sapiens, UniProt P56373); assay: In vitro electrophysiology assay for P2X3 (automated whole-cell patch clamp, α,β-MeATP agonist); format: cell-based; conditions: 800 nM α,β-MeATP, peak current, read-out: h P2X3 (pIC50 range of activity) (converted)
T2 sequence (P56373 1-397): T1 sequence (P56373 1-397)
Experimental: In Vitro Electrophysiology Assay for P2X3
Cells expressing P2X3 receptors were grown according to standard practice and maintained at 37° C. in a 5% humidified CO2 atmosphere. The cells were seeded into T175 flask 2 days prior to the day of the assay and dissociated from the flasks using TrypLE when grown to confluence of 80-90%. The dissociated cells were resuspended in serum free media at a cell density of 3×10^6 cells/ml and loaded onto the Sophion Qube automated patch-clamp system. The extracellular assay buffer contained 145 mM NaCl, 4 mM KCl, 2 mM CaCl2, 1 mM MgCl2, 10 mM HEPES, and 10 mM glucose at pH 7.4. The intracellular assay solution contained 140 mM CsF, 10 mM NaCl, 10 mM EGTA, 10 mM HEPES at pH 7.2. Agonist stock solutions were prepared in H2O and diluted in bath solution prior to use. All antagonists were prepared as 10 mM stock solutions in DMSO and diluted in bath solution prior to use. All experiments were performed under the whole-cell patch clamp configuration at room temperature with 384 individual cells being voltage clamped at −60 mV simultaneously on the Sophion Qube instrument. Two baseline responses were established with the application of α,β-MeATP (800 nM), with the subsequent agonist applications being washed out using extracellular assay buffer containing 0.5 U/ml apyrase. Following the second agonist application, antagonist was incubated in the absence of α,β-MeATP for 10 minutes. After antagonist preincubation, 800 nM α,β-MeATP and antagonist were co-administered to determine the inhibitory effect of the antagonist. One concentration of an antagonist was assessed against a single cell, with different concentrations of the antagonist applied to other cells on the 384 recording substrate. The control P2X3 current amplitude was taken from the peak current amplitude from the second agonist response prior to preincubation with antagonist. The peak P2X3 current amplitude in the presence of antagonist was used to calculate the inhibitory effect at each concentration of the antagonist according to the following equation:
Percentage inhibition of P2X3=(P2X3 control peak amplitude−P2X3 antagonist peak amplitude)/P2X3 control peak amplitude)*100
Concentration-response curves were constructed from ten different concentrations with each concentration of antagonist tested on at least two individual cells. The concentration of the antagonist to inhibit P2X3 current by 50% (IC50) was determined by fitting the data with the following equation:
Y=a+[(b−a)/(1+10^((log c−x)d)]
Where ‘a’ is minimum response, ‘b’ is maximum response, ‘c’ is IC50 and ‘d’ is Hill slope.

Structure (SMILES)	IC50 (h P2X2/3)	IC50 (h P2X3; Table 2)	IC50 (h P2X3; Table 3)
Cc1nnc(C(C)Nc2ncnc3c(OCC(F)F)cc(-c4ccc(F)cn4)cc23)s1 (single isomer, unassigned; enantiomer 1) [Example 6, Single enantiomer 1 of 8-(2,2-difluoroethoxy)-6-(5-fluoro-2-pyridyl)-N-[1-(5-methyl-1,3,4-thiadiazol-2-yl)ethyl]quinazolin-4-amine]	3160 to 31600 nM	< 316 nM	< 316 nM
Cc1nc([C@@H](C)Nc2ncnc3c(S(=O)(=O)N(C)C)cc(-c4ccc(F)cc4)cc23)no1 (stereo in doubt) [Example 15, 6-(4-fluorophenyl)-N,N-dimethyl-4-((1-(5-methyl-1,2,4-oxadiazol-3-yl)ethyl)amino)quinazoline-8-sulfonamide]	316 to 3160 nM	< 316 nM	< 316 nM
Cc1ccc(CNc2ncnc3c(OCC(F)F)cc(-c4ccc(F)cc4)cc23)nn1 [Example 1, 8-(2,2-difluoroethoxy)-6-(4-fluorophenyl)-N-((6-methylpyridazin-3-yl)methyl)quinazolin-4-amine]	3160 to 31600 nM	< 316 nM	< 316 nM
C[C@@H](Nc1ncnc2c(OCC(F)F)cc(-c3ccc(F)cc3)cc12)c1cnc(C(F)(F)F)nc1 [Example 2, (R)-8-(2,2-difluoroethoxy)-6-(4-fluorophenyl)-N-(1-(2-(trifluoromethyl)pyrimidin-5-yl)ethyl)quinazolin-4-amine]	316 to 3160 nM	< 316 nM	< 316 nM
Cc1cnc(-c2cc(OCC(F)F)c3ncnc(NCc4ccc(C)nn4)c3c2)nc1 [Example 9, 8-(2,2-difluoroethoxy)-N-[(6-methylpyridazin-3-yl)methyl]-6-(5-methylpyrimidin-2-yl)quinazolin-4-amine]	316 to 3160 nM	< 316 nM	< 316 nM
Cc1ccc([C@@H](C)Nc2ncnc3c(S(=O)(=O)N4CCC(F)(F)C4)cc(-c4ccc(F)cc4)cc23)nn1 [Example 16]	316 to 3160 nM	< 316 nM	< 316 nM
Cc1nc([C@@H](C)Nc2ncnc3c(S(=O)(=O)N4CCC(F)(F)C4)cc(-c4ccc(F)cc4)cc23)no1 [Example 17, (R)-8-((3,3-difluoropyrrolidin-1-yl)sulfonyl)-6-(4-fluorophenyl)-N-(1-(5-methyl-1,2,4-oxadiazol-3-yl)ethyl)quinazolin-4-amine]	316 to 3160 nM	< 316 nM	< 316 nM
CNS(=O)(=O)c1cc(-c2ccc(F)cc2)cc2c(N[C@H](C)c3ccc(C)nn3)ncnc12 [Example 21, (R)-6-(4-fluorophenyl)-N-methyl-4-((1-(6-methylpyridazin-3-yl)ethyl)amino)quinazoline-8-sulfonamide]	3160 to 31600 nM	< 316 nM	< 316 nM
CNS(=O)(=O)c1cc(-c2ccc(F)cc2)cc2c(N[C@H](C)c3noc(C)n3)ncnc12 [Example 22, (R)-6-(4-fluorophenyl)-N-methyl-4-((1-(5-methyl-1,2,4-oxadiazol-3-yl)ethyl)amino)quinazoline-8-sulfonamide]	3160 to 31600 nM	< 316 nM	< 316 nM
Cc1ccc([C@@H](C)Nc2ncnc3c([S+](C)[O-])cc(-c4ccc(F)cc4)cc23)nn1 (stereo partly drawn) [Example 27, 6-(4-fluorophenyl)-N-((R)-1-(6-methylpyridazin-3-yl)ethyl)-8-(methylsulfinyl)quinazolin-4-amine]	316 to 3160 nM	< 316 nM	< 316 nM
C[C@@H](Nc1ncnc2c(OC3CCNC3=O)cc(-c3ccc(F)cc3)cc12)c1cnc(C(F)(F)F)nc1 (stereo partly drawn) [Example 34, 3-((6-(4-fluorophenyl)-4-(((R)-1-(2-(trifluoromethyl)pyrimidin-5-yl)ethyl)amino)quinazolin-8-yl)oxy)pyrrolidin-2-one]	316 to 3160 nM	< 316 nM	< 316 nM
COC(=O)C1(NC(=O)COc2cc(-c3ccc(F)cc3)cc3c(NCc4ccc(C)nn4)ncnc23)CC1 [Example 42, Methyl 1-(2-((6-(4-fluorophenyl)-4-(((6-methylpyridazin-3-yl)methyl)amino)quinazolin-8-yl)oxy)acetamido)cyclopropane-1-carboxylate]	3160 to 31600 nM	316 to 3160 nM	316 to 3160 nM
COC(=O)C1(NC(=O)COc2cc(-c3ccc(F)cc3)cc3c(N[C@H](C)c4cnc(C(F)(F)F)nc4)ncnc23)CC1 [Example 43, Methyl (R)-1-(2-((6-(4-fluorophenyl)-4-((1-(2-(trifluoromethyl)pyrimidin-5-yl)ethyl)amino)quinazolin-8-yl)oxy)acetamido) cyclopropane-1-carboxylate]	3160 to 31600 nM	316 to 3160 nM	316 to 3160 nM
C[C@@H](Nc1ncnc2c(OCC3(C(=O)O)CCNCC3)cc(-c3ccc(F)cc3)cc12)c1cnc(C(F)(F)F)nc1 [Example 47, (R)-4-(((6-(4-fluorophenyl)-4-((1-(2-(trifluoromethyl)pyrimidin-5-yl)ethyl)amino)quinazolin-8-yl)oxy)methyl)piperidine-4-carboxylic acid hydrochloride]	3160 to 31600 nM	316 to 3160 nM	316 to 3160 nM
Cc1ccc(CNc2ncnc3c(OCc4nnc(C5CC5)o4)cc(-c4ccc(F)cc4)cc23)nn1 [Example 62, 8-((5-cyclopropyl-1,3,4-oxadiazol-2-yl)methoxy)-6-(4-fluorophenyl)-N-((6-methylpyridazin-3-yl)methyl)quinazolin-4-amine]	316 to 3160 nM	< 316 nM	< 316 nM
